{"source": "paper PMC8592419", "about": "(PLoS ONE, 2021)", "key": {"[1]": {"system": "Mab ATCC19977 strain", "format": "cell-based, Mycobacterium abscessus", "protocol": "(§1) Briefly, serial dilutions of the AMPs were prepared with potassium phosphate buffer (PPB) from the concentration range of 3.125 to 400 μg/ml and then 50 μl of each dilution were added to each 96-well plate. Colonies of the isolate were suspended and then further diluted in Mueller-Hinton broth to obtain a final concentration of 1×10^3 CFU/ml (optimized according to the available AMP stock concentration). Fifty microliters of this inoculum were added to each well of the plates. The plates were incubated for 3 days at 37°C. Plain media and bacterial suspensions without AMPs were used as negative and positive controls. The MIC values were read and recorded. All assays were performed in duplicate and two independent experiments."}, "[2]": {"system": "M. abscessus clinical isolate MAB02", "format": "cell-based, M. abscessus subsp. abscessus", "settings": "3 days at 37°C", "protocol": "as §1\n(§2) For the in vitro antimicrobial susceptibility, the same protocol as described above was used. The culture plates were further incubated up to 3 days at 37°C. The MIC values were read and recorded."}, "[3]": {"system": "M. abscessus clinical isolate MAB06", "format": "cell-based, M. abscessus subsp. abscessus", "settings": "3 days at 37°C", "protocol": "as §1, §2"}, "[4]": {"system": "M. abscessus clinical isolate MAB01", "test": "In vitro antimicrobial susceptibility of potential AMPs, broth microdilution, 3 days", "format": "cell-based, M. abscessus subsp. abscessus", "settings": "3 days at 37°C", "protocol": "as §1, §2"}, "[5]": {"system": "M. abscessus clinical isolate MAB03", "test": "In vitro antimicrobial susceptibility of potential AMPs, broth microdilution, 3 days", "format": "cell-based, M. abscessus subsp. abscessus", "settings": "3 days at 37°C", "protocol": "as §1, §2"}, "[6]": {"system": "M. abscessus clinical isolate MAB04", "test": "In vitro antimicrobial susceptibility of potential AMPs, broth microdilution, 3 days", "format": "cell-based, M. abscessus subsp. abscessus", "settings": "3 days at 37°C", "protocol": "as §1, §2"}, "[7]": {"system": "M. abscessus clinical isolate MAB05", "test": "In vitro antimicrobial susceptibility of potential AMPs, broth microdilution, 3 days", "format": "cell-based, M. abscessus subsp. abscessus", "settings": "3 days at 37°C", "protocol": "as §1, §2"}, "[8]": {"system": "M. abscessus clinical isolate MAB07", "test": "In vitro antimicrobial susceptibility of potential AMPs, broth microdilution, 3 days", "format": "cell-based, M. abscessus subsp. abscessus", "settings": "3 days at 37°C", "protocol": "as §1, §2"}, "[9]": {"system": "M. abscessus clinical isolate MAB08", "test": "In vitro antimicrobial susceptibility of potential AMPs, broth microdilution, 3 days", "format": "cell-based, M. abscessus subsp. abscessus", "settings": "3 days at 37°C", "protocol": "as §1, §2"}, "[10]": {"system": "M. abscessus clinical isolate MAB09", "test": "In vitro antimicrobial susceptibility of potential AMPs, broth microdilution, 3 days", "format": "cell-based, M. abscessus subsp. abscessus", "settings": "3 days at 37°C", "protocol": "as §1, §2"}, "[11]": {"system": "M. abscessus clinical isolate MAB10", "test": "In vitro antimicrobial susceptibility of potential AMPs, broth microdilution, 3 days", "format": "cell-based, M. abscessus subsp. abscessus", "settings": "3 days at 37°C", "protocol": "as §1, §2"}, "[12]": {"system": "M. abscessus clinical isolate MAB11", "test": "In vitro antimicrobial susceptibility of potential AMPs, broth microdilution, 3 days", "format": "cell-based, M. abscessus subsp. abscessus", "settings": "3 days at 37°C", "protocol": "as §1, §2"}, "[13]": {"system": "M. abscessus clinical isolate MAB12", "test": "In vitro antimicrobial susceptibility of potential AMPs, broth microdilution, 3 days", "format": "cell-based, M. abscessus subsp. massiliense", "settings": "3 days at 37°C", "protocol": "as §1, §2"}, "[14]": {"system": "M. abscessus clinical isolate MAB14", "test": "In vitro antimicrobial susceptibility of potential AMPs, broth microdilution, 3 days", "format": "cell-based, M. abscessus subsp. massiliense", "settings": "3 days at 37°C", "protocol": "as §1, §2"}, "[15]": {"system": "M. abscessus clinical isolate MAB15", "test": "In vitro antimicrobial susceptibility of potential AMPs, broth microdilution, 3 days", "format": "cell-based, M. abscessus subsp. massiliense", "settings": "3 days at 37°C", "protocol": "as §1, §2"}, "[16]": {"system": "M. abscessus clinical isolate MAB16", "test": "In vitro antimicrobial susceptibility of potential AMPs, broth microdilution, 3 days", "format": "cell-based, M. abscessus subsp. massiliense", "settings": "3 days at 37°C", "protocol": "as §1, §2"}, "[17]": {"system": "M. abscessus clinical isolate MAB13", "format": "cell-based, M. abscessus subsp. massiliense", "settings": "3 days at 37°C", "protocol": "as §1, §2"}, "[18]": {"system": "human red blood cells (RBCs)", "test": "Hemolytic toxicity test", "format": "cell-based", "settings": "for Hemolytic activities (%hemolysis): human RBCs, 1 h at 37°C, mean±SD of duplicates, two independent experiments", "protocol": "For the hemolytic toxicity test, red blood cells (RBCs) from fresh blood samples of healthy volunteers were obtained by centrifugation at 1,000 rpm for 5 min. The cells were washed three times with sterile phosphate buffered saline (PBS) and adjusted into 1×10^8 cells/ml. AMPs were diluted with PPB in ranging from 6.25 to 400 μg/ml. Fifty microliters of the RBC suspensions and 50 μl of AMP solutions were added to 1.5 ml sterile microtubes, incubated for 1 h at 37°C and then centrifuged at 1,000 rpm for 5 min. The supernatants were transferred to new 96-well microtiter plates for measurement of the absorbance at 540 nm using a microplate reader. RBC suspensions treated with 2% (v/v) Triton X-100 and PBS solution were used as positive and negative controls. The percentages of hemolysis were calculated using the following formula: % of RBC lysis = 100 × [(Test—PBS) / (Positive control—PBS)]. All assays were performed in duplicate and two independent experiments."}, "[19]": {"system": "human peripheral blood mononuclear cells (PBMCs)", "test": "PBMC toxicity, trypan blue exclusion assay", "format": "cell-based", "settings": "1 h at 37°C, mean±SD of duplicates, two independent experiments", "protocol": "For the toxicity of the potential AMPs to human peripheral blood mononuclear cells (PBMCs), the trypan blue exclusion assay was used. Fresh human PBMCs were prepared from blood samples of healthy volunteers using the Ficoll density gradient technique. The cells were centrifuged at 1,800 rpm for 20 min at 20°C and washed three times with PBS and adjusted with RPMI-1640 medium into 6.25×10^5 cells/ml. Fifty microliters of PBMC suspension and 50 μl of AMP solutions (6.25–400 μg/ml) were added to the 96-well microtiter plates and incubated for 1 h at 37°C. Then, 20 μl of the samples were mixed with 20 μl of 0.4% (w/v) trypan blue solution (0.81% NaCl and 0.06% (w/v) dibasic potassium phosphate) in microtubes and incubated for 3 min at room temperature. The PBMC suspensions treated with PBS were used as negative controls. PBMCs were counted using a dual-chamber hemocytometer under a light microscope. Viable and non-viable cells were counted under a microscope and the percentage of viable cells was calculated using the following formula: % of viable cells = [1.00 –([…] / Number of total cells)] × 100. All assays were performed in duplicate with two independent experiments."}, "[20]": {"system": "sixteen clinical Mab isolates", "test": "24-hour bactericidal activity assay, summary over isolates", "format": "cell-based, Mycobacterium abscessus", "settings": "majority of the tested strains (10/16 isolates); equivalent of <50 μg/ml", "protocol": "as §1\nPotential AMPs from the screening assays were subjected to determine the 24-hour bactericidal activity assays (corresponding to the common time of administration) with sixteen clinical Mab isolates using the protocol as described above. To observe the early antimicrobial activities, the plates were incubated for 24 h at 37°C. The samples from each well were further diluted in 0.05% Tween 80 and inoculated on Mueller-Hinton agar. After incubation for 3 days at 37°C, the colony-forming units (CFUs) were counted and calculated for the percentage of killing using the following formula: % killing = 1 - (CFU sample/ CFU control) ×100."}, "[21]": {"system": "clinical isolates of M. abscessus", "test": "In vitro susceptibility of potential AMPs, 3 days, summary over isolates", "format": "cell-based, Mycobacterium abscessus", "settings": "isolates MAB01 and MAB03", "protocol": "as §1, §2"}}, "note": "Where a SMILES comes first, the peptide text is derived from it."}
{"molecule": "CC(C)C[C@H](NC(=O)[C@H](CCCCN)NC(=O)[C@H](CC(C)C)NC(=O)[C@H](CC(C)C)NC(=O)[C@H](CC(C)C)NC(=O)[C@H](CC(C)C)NC(=O)[C@H](CC(C)C)NC(=O)[C@H](CCCCN)NC(=O)[C@H](CC(C)C)NC(=O)[C@@H](N)CCCCN)C(=O)O", "note": "[KLK1] (H-KLKLLLLLKL-OH)", "values": [{"measurement": "MIC values", "setting": "[1]", "result": 400, "unit": "µg/mL"}, {"measurement": "Antimicrobial peptides against M. abscessus isolates, MIC value", "setting": "[2]", "result": ">400", "unit": "µg/mL"}, {"measurement": "Antimicrobial peptides against M. abscessus isolates, MIC value", "setting": "[3]", "result": ">400", "unit": "µg/mL"}, {"measurement": "Antimicrobial peptides against M. abscessus isolates, MIC value", "setting": "[4]", "result": 25, "unit": "µg/mL"}, {"measurement": "Antimicrobial peptides against M. abscessus isolates, MIC value", "setting": "[5]", "result": 50, "unit": "µg/mL"}, {"measurement": "Antimicrobial peptides against M. abscessus isolates, MIC value", "setting": "[6]", "result": ">400", "unit": "µg/mL"}, {"measurement": "Antimicrobial peptides against M. abscessus isolates, MIC value", "setting": "[7]", "result": ">400", "unit": "µg/mL"}, {"measurement": "Antimicrobial peptides against M. abscessus isolates, MIC value", "setting": "[8]", "result": ">400", "unit": "µg/mL"}, {"measurement": "Antimicrobial peptides against M. abscessus isolates, MIC value", "setting": "[9]", "result": ">400", "unit": "µg/mL"}, {"measurement": "Antimicrobial peptides against M. abscessus isolates, MIC value", "setting": "[10]", "result": ">400", "unit": "µg/mL"}, {"measurement": "Antimicrobial peptides against M. abscessus isolates, MIC value", "setting": "[11]", "result": ">400", "unit": "µg/mL"}, {"measurement": "Antimicrobial peptides against M. abscessus isolates, MIC value", "setting": "[12]", "result": ">400", "unit": "µg/mL"}, {"measurement": "Antimicrobial peptides against M. abscessus isolates, MIC value", "setting": "[13]", "result": ">400", "unit": "µg/mL"}, {"measurement": "Antimicrobial peptides against M. abscessus isolates, MIC value", "setting": "[14]", "result": ">400", "unit": "µg/mL"}, {"measurement": "Antimicrobial peptides against M. abscessus isolates, MIC value", "setting": "[15]", "result": ">400", "unit": "µg/mL"}, {"measurement": "Antimicrobial peptides against M. abscessus isolates, MIC value", "setting": "[16]", "result": ">400", "unit": "µg/mL"}, {"measurement": "Antimicrobial peptides against M. abscessus isolates, MIC value", "setting": "[17]", "result": ">400", "unit": "µg/mL"}, {"measurement": "Hemolytic activities (%hemolysis)", "setting": "[18]; 6.25 µg/mL", "result": "0.7±0.50", "unit": "%"}, {"measurement": "Hemolytic activities (%hemolysis)", "setting": "[18]; 12.5 µg/mL", "result": "4.93±2.49", "unit": "%"}, {"measurement": "Hemolytic activities (%hemolysis)", "setting": "[18]; 25 µg/mL", "result": "8.27±1.74", "unit": "%"}, {"measurement": "Hemolytic activities (%hemolysis)", "setting": "[18]; 50 µg/mL", "result": "12.15±0.25", "unit": "%"}, {"measurement": "Hemolytic activities (%hemolysis)", "setting": "[18]; 100 µg/mL", "result": "15.85±1.49", "unit": "%"}, {"measurement": "Hemolytic activities (%hemolysis)", "setting": "[18]; 200 µg/mL", "result": "18.13±0.25", "unit": "%"}, {"measurement": "Hemolytic activities (%hemolysis)", "setting": "[18]; 400 µg/mL", "result": "22.18±1.99", "unit": "%"}, {"measurement": "hemolysis at the MICs level", "setting": "[18]; at the MICs level, single figure of the abstract", "result": 10.21, "unit": "%"}, {"measurement": "Viable cells of PBMCs (% viable cells)", "setting": "[19]; 6.25 µg/mL", "result": "102.52±5.04", "unit": "%"}, {"measurement": "Viable cells of PBMCs (% viable cells)", "setting": "[19]; 12.5 µg/mL", "result": "100.00±2.95", "unit": "%"}, {"measurement": "Viable cells of PBMCs (% viable cells)", "setting": "[19]; 25 µg/mL", "result": "92.70±4.41", "unit": "%"}, {"measurement": "Viable cells of PBMCs (% viable cells)", "setting": "[19]; 50 µg/mL", "result": "94.34±2.80", "unit": "%"}, {"measurement": "Viable cells of PBMCs (% viable cells)", "setting": "[19]; 100 µg/mL", "result": "91.68±8.42", "unit": "%"}, {"measurement": "Viable cells of PBMCs (% viable cells)", "setting": "[19]; 200 µg/mL", "result": "65.81±4.51", "unit": "%"}, {"measurement": "Viable cells of PBMCs (% viable cells)", "setting": "[19]; 400 µg/mL", "result": "44.62±7.22", "unit": "%"}, {"measurement": "MIC with ~99% killed within 24 h", "setting": "[20]", "result": "< 41.85", "unit": "µM"}, {"measurement": "MIC values after 3 days", "setting": "[21]", "result": "20.93 to 41.85", "unit": "µM"}]}
